{
  "source": "patent US10912788B2",
  "about": "“Methods and compositions for preventing and treating conditions related to alpha-synuclein” (PurePharm, Inc., priority 2018, dated 2021)",
  "key": {"[1]": {"system": "PD patients with chronic constipation", "assay": "Open-label pilot study of GlcNAc (Villicote) on motor and constipation symptoms in Parkinson's Disease", "type": "in vivo, human", "from_the_text": "Participants were enlisted in a movement disorders outpatient clinic in Toronto, Canada. Inclusion criteria were a diagnosis of PD according to UK PD society brain bank criteria and chronic constipation that was not improved by laxatives. Exclusion criteria were the co-occurrence of conditions biasing results and/or changes of medications (including anti-constipation drugs).\nThis was an open-label study that sought to evaluate the efficacy of GlcNAc (Villicote®, Wellesley Therapeutics Inc.) on PD patients with chronic constipation who have previously used laxatives to relieve symptoms of constipation, to little or no avail. […] The self-reported assessments evaluated motor condition and dysfunction (fluctuation and dyskinesia) using section IV of the Unified Parkinson's Disease Rating Scale (UPDRS IV) and asking about presence and frequency of delayed onset (Delayed ON) and Failure of “on” response (no ON); Perceived severity and improvement in of motor dysfunction, and constipation by means of both Patients' Global Impression-Severity (PGI-S) and Patients' Global Impressions of Change (PGI-C) scale accordingly. Severity of Constipation was also evaluated by means of questions 5 and 6 of SCOPA-AUT [17] and the Constipation Scoring System (CSS). In addition, side-effects experienced while on Villicote and qualitative feedback on the product was noted.\nTheir age and disease duration was 65.7±7.5 and 11.7±5.1 years, respectively. Mean UPDRS-III at study entry was 22.1±10.9."}, "[2]": {"settings": "cited from earlier work"}, "[3]": {"system": "pediatric treatment-resistant inflammatory bowel disease (Crohn's disease and ulcerative colitis patients)", "settings": "oral administration; reduced symptoms of gut inflammation, increased sulphated GAG expression; cited from earlier work"}, "[4]": {"settings": "PD patients treated with GlcNAc"}, "[5]": {"settings": "PD patients treated with GlcNAc, motor fluctuations"}},
  "data": [
    {"smiles": "CC(=O)N[C@H]1C(O)O[C@H](CO)[C@@H](O)[C@@H]1O", "note": "(some centres unmarked) [GlcNAc, N-acetylglucosamine]", "values": [
      {"measurement": "No-ON", "setting": "[1]; After GlcNAc, 1 month time point, PD patients, before GlcNAc 0.0", "result": 0.0},
      {"measurement": "Delayed-ON", "setting": "[1]; After GlcNAc, 1 month time point, PD patients, before GlcNAc 0.1 ± 0.4", "result": "0.1 ± 0.4"},
      {"measurement": "SCOPA-AUT (questions 5 and 6)", "setting": "[1]; After GlcNAc, 1 month time point, PD patients, before GlcNAc 3.9 ± 1.9", "result": "3.1 ± 1.7"},
      {"measurement": "UPDRS-IV", "setting": "[1]; After GlcNAc, 1 month time point, PD patients, before GlcNAc 3.9 ± 2.4", "result": "3.9 ± 2.4"},
      {"measurement": "CSS (Constipation Scoring System)", "setting": "[1]; After GlcNAc, 1 month time point, PD patients, before GlcNAc 9.4 ± 6.1, Wilcoxon Z=−2.043, P=0.041", "result": "6.5 ± 3.9"},
      {"measurement": "tolerability", "setting": "[1]; PD patients", "result": "well-tolerated"},
      {"measurement": "anti-constipation effect", "setting": "[1]; PD patients failing drugs for constipation", "result": "effective anti-constipation agent"},
      {"measurement": "PGI-I Constipation", "setting": "[1]; [4]", "result": "1.6 ± 1.4"},
      {"measurement": "PGI-S Constipation", "setting": "[1]; [4]", "result": "2.8 ± 1.3"},
      {"measurement": "PGI-I Fluctuation", "setting": "[1]; [5]", "result": 0},
      {"measurement": "PGI-S Fluctuation", "setting": "[1]; [5]", "result": "0.8 ± 0.9"},
      {"measurement": "effect on motor functions", "setting": "[1]; PD patients, short follow-up", "result": "No effect was observed"},
      {"measurement": "solubility in water", "setting": "[2]", "result": 25, "unit": "%"},
      {"measurement": "efficacy in pediatric treatment-resistant inflammatory bowel disease", "setting": "[3]", "result": "therapeutic efficacy"}
    ]}
  ]
}
